≈ marks a conversion by molar mass, not a printed value. Where two headings read alike, the source gives them in different places.
Experiments:
[1] = tested on: C. difficile NR-32904 (P30); assay: Clostridium difficile inhibition analysis; format: cell-based; conditions: for Clostridium difficile inhibition: Table 6, P30; for Antibacterial activity: Table 7, C. difficile NR-32904 (P30)
[2] = tested on: Clostridium difficile ATCC 9689; assay: Clostridium difficile inhibition analysis; format: cell-based; conditions: Table 6, ATCC 9689
[3] = tested on: C. difficile NR-32883 (P2); assay: Clostridium difficile inhibition analysis; format: cell-based; conditions: for Clostridium difficile inhibition: Table 6, P2; for Antibacterial activity: Table 7, C. difficile NR-32883 (P2)
[4] = tested on: Clostridium difficile ATCC BAA 1801; assay: Clostridium difficile inhibition analysis; format: cell-based; conditions: for Clostridium difficile inhibition: Table 6, ATCC BAA 1801; for Antibacterial activity: Table 7, C. difficile ATCC BAA 1801
[5] = tested on: C. difficile NR-13432 (isolate 6); assay: Clostridium difficile inhibition analysis; format: cell-based; conditions: for Clostridium difficile inhibition: Table 6, I6; for Antibacterial activity: Table 7, C. difficile NR-13432 (isolate 6)
[6] = tested on: C. difficile NR-32891 (P13); assay: Clostridium difficile inhibition analysis; format: cell-based; conditions: for Clostridium difficile inhibition: Table 6, P13; for Antibacterial activity: Table 7, C. difficile NR-32891 (P13)
E. faecalis = assay: MIC (Table 5, strain not given); format: cell-based; conditions: Enterococcus faecalis; E. faecalis (Table 5)
Experimental: (§1) Bacteria were cultured in cation-adjusted Mueller Hinton Broth (for strains in Tables 1 and 4) or Brain Heart Infusion broth (for Enterococcus faecium) or Tryptic Soy Broth (all other bacteria) in a 96-well plate at 37° C. for at least 20 hours. The MIC was classified as the lowest concentration where no visual growth of bacteria was observed. The minimum bactericidal concentration (MBC) was tested by spotting 4 μL from wells with no growth onto Tryptic Soy Agar (TSA) plates. Plates were incubated at 37° C. for at least 18 hours before recording the MBC.

VRE = assay: MIC (Table 5, strain not given); format: cell-based; conditions: Enterococcus; VRE (Table 5)
Experimental: as §1

S. aureus = assay: MIC (Table 5, strain not given); format: cell-based; conditions: Staphylococcus aureus; S. aureus (Table 5)
Experimental: as §1

[7] = tested on: C. difficile NR-32895 (P19); assay: Clostridium difficile inhibition analysis; format: cell-based; conditions: for Clostridium difficile inhibition: Table 6, P19; for Antibacterial activity: Table 7, C. difficile NR-32895 (P19)
[8] = tested on: C. difficile NR-13435 (isolate 9); assay: Clostridium difficile inhibition analysis; format: cell-based; conditions: for Clostridium difficile inhibition: Table 6, I9; for Antibacterial activity: Table 7, C. difficile NR-13435 (isolate 9)
MRSA ATCC 33592 = assay: MIC, broth microdilution; format: cell-based; conditions: Staphylococcus aureus
Experimental: as §1

[9] = tested on: Clostridium difficile ATCC 43255; assay: Clostridium difficile inhibition analysis; format: cell-based; conditions: for Clostridium difficile inhibition: Table 6, ATCC 43255; for Antibacterial activity: Table 7, C. difficile ATCC 43255
VISA NRS1 = assay: MIC and MBC; format: cell-based, S. aureus; conditions: Staphylococcus aureus
Experimental: as §1

VRSA VRS12 = assay: MIC and MBC; format: cell-based, S. aureus
Experimental: as §1

MRSA NRS387 (USA800) = assay: MIC and MBC; format: cell-based; conditions: Staphylococcus aureus
Experimental: as §1

MRSA NRS384 (USA300) = assay: MIC and MBC; format: cell-based; conditions: Staphylococcus aureus
Experimental: as §1

MRSA NRS385 (USA500) = assay: MIC and MBC; format: cell-based; conditions: Staphylococcus aureus
Experimental: as §1

MRSA NRS123 (USA400) = assay: MIC and MBC; format: cell-based; conditions: Staphylococcus aureus
Experimental: as §1

MRSA NRS386 (USA700) = assay: MIC and MBC; format: cell-based; conditions: Staphylococcus aureus
Experimental: as §1

E. faecium ATCC = assay: MIC and MBC; format: cell-based
Experimental: as §1

MRSA NRS119 = assay: MIC and MBC; format: cell-based, Staphylococcus aureus; conditions: Staphylococcus aureus
Experimental: as §1

E. faecalis ATCC 29212 = assay: MIC, broth microdilution; format: cell-based; conditions: Enterococcus faecalis, ATCC29212
Experimental: as §1

[10] = tested on: VRE (E. faecalis) ATCC 51575; assay: MIC, broth microdilution; format: cell-based
Experimental: as §1

[11] = tested on: L. monocytogenes ATCC 19115; assay: MIC, broth microdilution; format: cell-based; conditions: Listeria monocytogenes, ATCC19115
Experimental: as §1

S. aureus ATCC 25923 = assay: MIC, broth microdilution; format: cell-based; conditions: Staphylococcus aureus, ATCC25923
Experimental: as §1

[12] = tested on: Pseudomonas aeruginosa ATCC 15442; assay: MIC against Gram-negative pathogens; format: cell-based
Experimental: as §1

[13] = tested on: Acinetobacter baumannii ATCC 19606; assay: MIC against Gram-negative pathogens; format: cell-based
Experimental: as §1

[14] = tested on: Klebsiella pneumoniae BAA-1706; assay: MIC against Gram-negative pathogens; format: cell-based
Experimental: as §1

Compound: C[C@@H]1C[C@H](C)CN(S(=O)(=O)c2ccc(C(=O)Nc3nnc(-c4ccnn4C)o3)cc2)C1 [HSGN-124, 4-(((3S,5R)-3,5-dimethylpiperidin-1-yl)sulfonyl)-N-(5-(1-methyl-1H-pyrazol-5-yl)-1,3,4-oxadiazol-2-yl)benzamide]
- Clostridium difficile inhibition [1]: 2
- Clostridium difficile inhibition [2]: 1
- Clostridium difficile inhibition [3]: 0.5
- Clostridium difficile inhibition [4]: 2
- Clostridium difficile inhibition [5]: 0.5
- Clostridium difficile inhibition [6]: 2
- MIC (E. faecalis): 16 µg/mL (≈ 36 µM)
- MIC (VRE): 128 µg/mL (≈ 288 µM)
- MIC (S. aureus): 8 µg/mL (≈ 18 µM)
- Clostridium difficile inhibition [7]: 1
- Clostridium difficile inhibition [8]: 0.5
- MIC (MRSA ATCC 33592; MRSA ATCC 33592, read-out: MIC): 4 µg/mL (≈ 9 µM)
- Clostridium difficile inhibition [9]: 1

Compound: CN(c1ccccc1)S(=O)(=O)c1ccc(C(=O)Nc2nnc(-c3ccc(C(F)(F)F)cc3)o2)cc1 [HSGN-161, 4-(N-methyl-N-phenylsulfamoyl)-N-(5-(4-(trifluoromethyl)phenyl)-1,3,4-oxadiazol-2-yl)benzamide]
- Clostridium difficile inhibition [1]: 0.5
- Clostridium difficile inhibition [2]: 0.5
- Clostridium difficile inhibition [3]: 0.5
- Clostridium difficile inhibition [4]: 1
- Clostridium difficile inhibition [5]: 0.5
- Clostridium difficile inhibition [6]: 0.5
- MIC (S. aureus): 0.25 µg/mL (≈ 0.498 µM)
- Clostridium difficile inhibition [7]: 0.5
- Clostridium difficile inhibition [8]: 0.5
- MIC (MRSA ATCC 33592; MRSA ATCC 33592, read-out: MIC): 0.25 µg/mL (≈ 0.498 µM)
- Clostridium difficile inhibition [9]: 0.5

Compound: C[C@@H]1C[C@H](C)CN(S(=O)(=O)c2csc(C(=O)Nc3nnc(-c4ccc(C(F)(F)F)cc4)o3)c2)C1 [HSGN-193, 4-(((3S,5R)-3,5-dimethylpiperidin-1-yl)sulfonyl)-N-(5-(4-(trifluoromethyl)phenyl)-1,3,4-oxadiazol-2-yl)thiophene-2-carboxamide]
- Antibacterial activity [1]: 0.5
- Antibacterial activity [3]: 0.125
- Antibacterial activity [4]: 0.25
- Antibacterial activity [5]: 0.125
- Antibacterial activity [6]: 0.5
- MIC (S. aureus): 0.5 µg/mL (≈ 0.972 µM)
- Antibacterial activity [7]: 0.25
- Antibacterial activity [8]: 0.125
- MIC (MRSA ATCC 33592; MRSA ATCC 33592, read-out: MIC): 1 µg/mL (≈ 1.94 µM)
- Antibacterial activity [9]: 0.25

Compound: CN[C@H](CC(C)C)C(=O)N[C@H]1C(=O)N[C@@H](CC(N)=O)C(=O)N[C@H]2C(=O)N[C@H]3C(=O)N[C@H](C(=O)N[C@H](C(=O)O)c4cc(O)cc(O)c4-c4cc3ccc4O)[C@H](O)c3ccc(c(Cl)c3)Oc3cc2cc(c3O[C@@H]2O[C@H](CO)[C@@H](O)[C@H](O)[C@H]2O[C@H]2C[C@](C)(N)[C@H](O)[C@H](C)O2)Oc2ccc(cc2Cl)[C@H]1O [Vancomycin, reference compound]
- Clostridium difficile inhibition [1]: 0.5
- Antibacterial activity [1]: 1
- Clostridium difficile inhibition [2]: 0.5
- Clostridium difficile inhibition [3]: 0.5
- Antibacterial activity [3]: 0.5
- MBC (VISA NRS1): 4 µg/mL (≈ 2.76 µM)
- MIC (VISA NRS1): 4 µg/mL (≈ 2.76 µM)
- MBC (VRSA VRS12; Staphylococcus aureus, VRSA): > 128 µg/mL
- MIC (VRSA VRS12; Staphylococcus aureus, VRSA): > 128 µg/mL
- MIC (VRSA VRS12; VRSA VRS12): >128 µg/mL
- Clostridium difficile inhibition [4]: 1
- Antibacterial activity [4]: 1
- Clostridium difficile inhibition [5]: 1
- Antibacterial activity [5]: 0.25
- MBC (MRSA NRS387 (USA800)): 2 µg/mL (≈ 1.38 µM)
- MIC (MRSA NRS387 (USA800)): 2 µg/mL (≈ 1.38 µM)
- MBC (MRSA NRS384 (USA300)): ≤ 1 µg/mL
- MIC (MRSA NRS384 (USA300)): ≤ 1 µg/mL
- MBC (MRSA NRS385 (USA500)): 2 µg/mL (≈ 1.38 µM)
- MIC (MRSA NRS385 (USA500)): ≤ 1 µg/mL
- MBC (MRSA NRS123 (USA400)): ≤ 1 µg/mL
- MIC (MRSA NRS123 (USA400)): ≤ 1 µg/mL
- MBC (MRSA NRS386 (USA700)): ≤ 1 µg/mL
- MIC (MRSA NRS386 (USA700)): ≤ 1 µg/mL
- MIC (E. faecium ATCC; E. faecium ATCC): >128 µg/mL
- MBC (E. faecium ATCC; Enterococcus faecium): > 128 µg/mL
- MIC (E. faecium ATCC; Enterococcus faecium): > 128 µg/mL
- Clostridium difficile inhibition [6]: 0.5
- Antibacterial activity [6]: 0.5
- Clostridium difficile inhibition [7]: 4
- Antibacterial activity [7]: 1
- Clostridium difficile inhibition [8]: 2
- Antibacterial activity [8]: 1
- MBC (MRSA NRS119): ≤ 1 µg/mL
- MIC (MRSA NRS119): ≤ 1 µg/mL
- MIC (E. faecalis ATCC 29212): 2 µg/mL (≈ 1.38 µM)
- MIC [10]: > 128 µg/mL
- MIC (MRSA ATCC 33592): 2 µg/mL (≈ 1.38 µM)
- MIC [11]: 1 µg/mL (≈ 0.69 µM)
- MIC (S. aureus ATCC 25923): 2 µg/mL (≈ 1.38 µM)
- Clostridium difficile inhibition [9]: 1
- Antibacterial activity [9]: 1

Compound: Colistin [reference compound]
- MIC [12]: ≤1 µg/mL
- MIC [13]: ≤1 µg/mL
- MIC [14]: ≤1 µg/mL
